Values quoted from earlier work as cited in patent publication US6710071B2, “Difluoromethylene aromatic ethers as inhibitors of glycine transport” (Pfizer Inc, priority 2001, dated 2004).

Tested on: NMDA receptor
Details: effect blocked by a specific NMDA-site antagonist and a glycine-site antagonist

For `CN(CCC(Oc1ccc(-c2ccccc2)cc1)c1ccc(F)cc1)CC(=O)O` (stereo not shown) [NFPS], the “post synaptic current driven by the NMDA receptor” value is listed as “increased”.
